{"source": "patent US20030158254A1", "about": "“Engineering absorption of therapeutic compounds via colonic transporters” (XenoPort, Inc., priority 2002, published 2003)", "biological_target": "T1, rat PEPT1 (Rattus norvegicus, UniProt P51574)", "T1 construct": "Rat and human PEPT1 and PEPT2 transporter cDNAs were subcloned into a modified pGEM plasmid; expressed in transfected cells; host or cells: Xenopus laevis oocytes injected with in vitro transcribed RNA", "T1 sequence (P51574 1-710)": "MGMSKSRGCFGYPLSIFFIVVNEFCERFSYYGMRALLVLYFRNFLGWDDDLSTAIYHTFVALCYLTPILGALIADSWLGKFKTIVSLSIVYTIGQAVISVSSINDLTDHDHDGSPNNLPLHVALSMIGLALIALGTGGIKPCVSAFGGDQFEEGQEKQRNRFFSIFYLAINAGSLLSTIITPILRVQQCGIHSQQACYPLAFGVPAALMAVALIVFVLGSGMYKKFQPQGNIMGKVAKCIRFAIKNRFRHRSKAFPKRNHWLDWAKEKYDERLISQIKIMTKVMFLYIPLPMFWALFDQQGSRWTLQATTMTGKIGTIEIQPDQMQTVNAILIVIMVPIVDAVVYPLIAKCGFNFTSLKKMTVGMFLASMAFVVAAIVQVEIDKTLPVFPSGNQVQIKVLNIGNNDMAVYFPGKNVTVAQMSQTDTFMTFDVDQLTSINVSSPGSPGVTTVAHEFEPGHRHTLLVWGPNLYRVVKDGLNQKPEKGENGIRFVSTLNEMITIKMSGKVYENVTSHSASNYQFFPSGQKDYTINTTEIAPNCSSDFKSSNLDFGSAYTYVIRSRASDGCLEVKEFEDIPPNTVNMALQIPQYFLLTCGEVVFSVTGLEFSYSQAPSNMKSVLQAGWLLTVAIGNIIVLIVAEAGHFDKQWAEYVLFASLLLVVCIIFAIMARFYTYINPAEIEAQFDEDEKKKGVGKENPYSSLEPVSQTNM", "experiment": "Electrogenic transport (induced current) in Xenopus oocytes transfected with rat PEPT1", "assay_type": "cell-based", "protocol": "Rat and human PEPT1 and PEPT2 expressing CHO cell lines were prepared as described in PCT Application WO01/20331. Gabapentin-containing dipeptides were evaluated for interaction with the peptide transporters using a radiolabeled substrate uptake assay in a competitive inhibition format, as described in PCT Application WO01/20331. Transport-induced currents were also measured in Xenopus oocytes transfected with rat and human PEPT1 and PEPT2.\nRNA preparation: Rat and human PEPT1 and PEPT2 transporter cDNAs were subcloned into a modified pGEM plasmid that contains 5′ and 3′ untranslated sequences from the Xenopus β-actin gene. These sequences increase RNA stability and protein expression. Plasmid cDNA was linearized and used as template for in vitro transcription (Epicentre Technologies transcription kit, 4:1 methylated:non-methylated guanosine triphosphate(GTP)).\nXenopus oocyte isolation. Xenopus laevis frogs were anesthetized by immersion in Tricaine ([…] in deionized water) for 15 min. […]\nElectrophysiology measurements. Transport currents were measured 2-14 days after injection, using a standard two-electrode electrophysiology set-up (Geneclamp 500 amplifier, Digidata 1320/PCLAMP software and ADInstruments hardware and software were used for signal acquisition). […]"}
{"smiles": "CC(C)(N)C(=O)NCC1(CC(=O)O)CCCCC1", "note": "[Compound V, a-aminoisobutyryl gabapentin]", "values": [{"measurement": "Vmax relative to reference substrate Gly-Sar", "setting": "1 mM, oocytes transfected with rat PEPT1", "result": 50, "unit": "%"}, {"measurement": "Vmax relative to Gly-Sar in the presence of PEPT inhibitor Lys(ε-Dansyl)-Leu", "setting": "rat PEPT transfected oocytes, with Lys(ε-Dansyl)-Leu", "result": "< 5", "unit": "%"}]}
